What was measured:
[1] = Pharmacokinetics in beagles, single-dose regimen of TRQI (i.v.) or TRQC (oral), plasma LC-MS/MS; format: in vivo, beagle; conditions: beagle, dog, plasma; for AUC(0-t): read-out: AUC0–24 h; for Cmax / Tmax / half-life: mean of six beagles
Method: (§1) 100 μL plasma sample was drawn and transferred to 1.5 mL centrifuge tube prior to 300 μL protein precipitant (3:1 [v/v] methanol/acetonitrile, containing 0.1% formic acid and 100 ng/mL IS) was added, and then the sample was vortex-mixed for 3 min. The mixture was centrifuged at 20,000 ×g for 10 min, and 100 μL supernatant was transferred to the injection vial and analyzed directly by LC–MS/MS.
(§2) This study was carried out in six beagles (three males and three females, 9.0–12.0 kg each), that were purchased from Junda Pet Hospital (Shanghai, China). This experimental protocol was approved by the Experimental Animal Ethics Committee of the Naval Military Medical University (Shanghai, China).
The six healthy beagles were divided into two groups: beagles 1–3 were all male and were assigned to the first group, and beagles 4–6 were all females and assigned to the second group. The two-cycle, crossover study was designed with a 7-day wash out period. For the single-administration process, the dogs in the first group were injected intravenously with 0.5 mL/kg TRQI (one-third of the normal daily dose), and blood samples were collected at 0, 5, 10, 15, 20, 30, and 45 min and then at 1, 2, 4, 6, 8, 12, and 24 h (a total of 14 time points) after injection. For each blood sample, 1 mL of blood was collected from the forelimb vein in heparin-treated tubes. The dogs in the second group were orally administrated 0.09 g/kg TRQC (one-third of the normal daily dose, and blood samples were collected in the same manner at 0, 10, 20, and 40 min and then at 1, 1.5, 2, 2.5, 3, 4, 6, 8, 12, and 24 h (a total of 14 time points). All blood samples were centrifuged at 4000 × g for 5 min, and each supernatant was collected and aliquoted. After a 7-day wash out period, the dogs in each group were administrated the other Tanreqing formulation in a crossover design, and blood samples were collected and processed in the same way.
(§3) All data obtained were analyzed using Drug and Statistics (DAS) 2.0 software (Chinese Society of Pharmacology), and a non-compartment analysis was used to calculate plasma pharmacokinetic parameters. The principal components of TRQI and TRQC were compared with an analysis of variance (ANOVA) and/or a two-tailed student-t test.

[2] = Pharmacokinetics in beagles, multiple-dose regimen (once per day for 7 days) of TRQI or TRQC, plasma LC-MS/MS; format: in vivo; conditions: beagle, dog; for Cmax at 7 days / Tmax at 7 days / half-life at 7 days: mean
Method: as §1, §2
After the end of the single-dose experiment, the dogs in group one were given 0.5 mL/kg injection of TRQI once per day for 7 days following the wash out period, and the dogs in group two were given 0.09 g/kg TRQC once per day for 7 days. After the seventh administration, blood samples were collected at 0, 10, 20, and 40 min and then at 1, 1.5, 2, 2.5, 3, 4, 6, 8, 12, and 24 h (a total of 14 time points) and were processed as described in “Single-dose regimen” section. The resulting plasma samples were used to determine the steady-state plasma concentration of TRQI and TRQC. A crossover study was again carried out in both groups, as described in “Single-dose regimen” section, after a 7-day washing period.
as §3

[3] = Stability of analytes in dog plasma (QC samples); format: in vitro ADME
Method: The stock solutions of all analytes were further mixed and diluted with methanol/water (10:90, v/v) solution to prepare the working solutions. […] The QC samples were stored in a refrigerator at – 80 °C until retrieval (see Additional file 1). The stability, which includes short-term stability (6 h at room temperature), long-term stability (− 80 °C for 30 days in the refrigerator), and freeze–thaw stability (three cycles from − 80 °C to room temperature), were assessed using QC samples at three concentration levels in three replicates. […] Similarly, there were no obvious effects on the analysis results of the samples with respect to short-term stability or long-term storage.

[4] = both sexes, iv, single i.v. dose of TRQI 0.5 mL/kg
[5] = both sexes, single oral dose of TRQC 0.09 g/kg
[6] = both sexes, iv, TRQI 0.5 mL/kg once per day for 7 days
[7] = both sexes, po, TRQC 0.09 g/kg once per day for 7 days
[8] = n = 3, high QC: nominal 200 ng/mL baicalin, 1000 ursodeoxycholic acid, 100 chenodeoxycholic acid and chlorogenic acid
[9] = n = 3, low QC: nominal 4 ng/mL baicalin, 20 ursodeoxycholic acid, 2 chenodeoxycholic acid and chlorogenic acid
[10] = n = 3, middle QC: nominal 20 ng/mL baicalin, 100 ursodeoxycholic acid, 10 chenodeoxycholic acid and chlorogenic acid

O=C(/C=C/c1ccc(O)c(O)c1)O[C@@H]1C[C@](O)(C(=O)O)C[C@@H](O)[C@H]1O [Chlorogenic acid, chlorogenic acid]
AUC(0-t) ([1]; both sexes, iv, 0.5 mL/kg, single TRQI 0.5 mL/kg, Mean): 20.3 ng·h/mL
Cmax [1, 4]: 26.6 ng/mL
Tmax [1, 4]: 0.13 h
half-life [1, 4]: 0.89 h
AUC(0-t) ([1]; both sexes, po, 0.09 g/kg, single TRQCs 0.09 g/kg, Mean): 29.1 ng·h/mL
Cmax [1, 5]: 8.58 ng/mL
Tmax [1, 5]: 3.75 h
half-life [1, 5]: 1.45 h
AUC(0-t) ([1]; female, iv, 0.5 mL/kg, single TRQI 0.5 mL/kg, beagle No 4): 11.2 ng·h/mL
AUC(0-t) ([1]; female, iv, 0.5 mL/kg, single TRQI 0.5 mL/kg, beagle No 5): 15.2 ng·h/mL
AUC(0-t) ([1]; female, iv, 0.5 mL/kg, single TRQI 0.5 mL/kg, beagle No 6): 24.8 ng·h/mL
AUC(0-t) ([1]; female, po, 0.09 g/kg, single TRQCs 0.09 g/kg, beagle No 4): 13.9 ng·h/mL
AUC(0-t) ([1]; male, iv, 0.5 mL/kg, single TRQI 0.5 mL/kg, beagle No 1): 29.6 ng·h/mL
AUC(0-t) ([1]; male, iv, 0.5 mL/kg, single TRQI 0.5 mL/kg, beagle No 2): 17.8 ng·h/mL
AUC(0-t) ([1]; male, po, 0.09 g/kg, single TRQCs 0.09 g/kg, beagle No 1): 21.1 ng·h/mL
AUC(0-t) ([1]; male, po, 0.09 g/kg, single TRQCs 0.09 g/kg, beagle No 2): 48.1 ng·h/mL
AUC(0-t) ([1]; male, po, 0.09 g/kg, single TRQCs 0.09 g/kg, beagle No 3): 33.2 ng·h/mL
AUC(0-inf) ([2]; both sexes, iv, 0.5 mL/kg, TRQI 0.5 mL/kg for 7 days, Mean): 15.9 ng·h/mL
AUC(0-t) ([2]; both sexes, iv, 0.5 mL/kg, TRQI 0.5 mL/kg for 7 days, Mean, read-out: AUC0–24 h): 15.4 ng·h/mL
Cmax at 7 days [2, 6]: 20.3 ng/mL
Tmax at 7 days [2, 6]: 0.18 h
half-life at 7 days [2, 6]: 0.88 h
AUC(0-inf) ([2]; both sexes, po, 0.09 g/kg, TRQC 0.09 g/kg for 7 days, Mean): 12.3 ng·h/mL
AUC(0-t) ([2]; both sexes, po, 0.09 g/kg, TRQC 0.09 g/kg for 7 days, Mean, read-out: AUC0–24 h): 11.7 ng·h/mL
Cmax at 7 days [2, 7]: 3.9 ng/mL
Tmax at 7 days [2, 7]: 3.17 h
half-life at 7 days [2, 7]: 1.56 h
AUC(0-inf) ([2]; female, iv, 0.5 mL/kg, TRQI 0.5 mL/kg for 7 days, beagle No. 4): 19.3 ng·h/mL
AUC(0-t) ([2]; female, iv, 0.5 mL/kg, TRQI 0.5 mL/kg for 7 days, beagle No. 4, read-out: AUC0–24 h): 19.1 ng·h/mL
AUC(0-inf) ([2]; female, iv, 0.5 mL/kg, TRQI 0.5 mL/kg for 7 days, beagle No. 5): 24.4 ng·h/mL
AUC(0-t) ([2]; female, iv, 0.5 mL/kg, TRQI 0.5 mL/kg for 7 days, beagle No. 5, read-out: AUC0–24 h): 23.9 ng·h/mL
AUC(0-inf) ([2]; female, iv, 0.5 mL/kg, TRQI 0.5 mL/kg for 7 days, beagle No. 6): 30.7 ng·h/mL
AUC(0-t) ([2]; female, iv, 0.5 mL/kg, TRQI 0.5 mL/kg for 7 days, beagle No. 6, read-out: AUC0–24 h): 30 ng·h/mL
AUC(0-inf) ([2]; female, po, 0.09 g/kg, TRQC 0.09 g/kg for 7 days, beagle No. 4): 23.2 ng·h/mL
AUC(0-t) ([2]; female, po, 0.09 g/kg, TRQC 0.09 g/kg for 7 days, beagle No. 4, read-out: AUC0–24 h): 22.6 ng·h/mL
AUC(0-inf) ([2]; female, po, 0.09 g/kg, TRQC 0.09 g/kg for 7 days, beagle No. 5): 13.3 ng·h/mL
AUC(0-t) ([2]; female, po, 0.09 g/kg, TRQC 0.09 g/kg for 7 days, beagle No. 5, read-out: AUC0–24 h): 11.4 ng·h/mL
AUC(0-inf) ([2]; female, po, 0.09 g/kg, TRQC 0.09 g/kg for 7 days, beagle No. 6): 27 ng·h/mL
AUC(0-t) ([2]; female, po, 0.09 g/kg, TRQC 0.09 g/kg for 7 days, beagle No. 6, read-out: AUC0–24 h): 26.9 ng·h/mL
AUC(0-inf) ([2]; male, iv, 0.5 mL/kg, TRQI 0.5 mL/kg for 7 days, beagle No. 1): 6.07 ng·h/mL
AUC(0-t) ([2]; male, iv, 0.5 mL/kg, TRQI 0.5 mL/kg for 7 days, beagle No. 1, read-out: AUC0–24 h): 6.07 ng·h/mL
AUC(0-inf) ([2]; male, iv, 0.5 mL/kg, TRQI 0.5 mL/kg for 7 days, beagle No. 2): 5.59 ng·h/mL
AUC(0-t) ([2]; male, iv, 0.5 mL/kg, TRQI 0.5 mL/kg for 7 days, beagle No. 2, read-out: AUC0–24 h): 5.24 ng·h/mL
AUC(0-inf) ([2]; male, iv, 0.5 mL/kg, TRQI 0.5 mL/kg for 7 days, beagle No. 3): 9.2 ng·h/mL
AUC(0-t) ([2]; male, iv, 0.5 mL/kg, TRQI 0.5 mL/kg for 7 days, beagle No. 3, read-out: AUC0–24 h): 8.21 ng·h/mL
AUC(0-inf) ([2]; male, po, 0.09 g/kg, TRQC 0.09 g/kg for 7 days, beagle No. 1): 1.31 ng·h/mL
AUC(0-t) ([2]; male, po, 0.09 g/kg, TRQC 0.09 g/kg for 7 days, beagle No. 1, read-out: AUC0–24 h): 0.72 ng·h/mL
AUC(0-inf) ([2]; male, po, 0.09 g/kg, TRQC 0.09 g/kg for 7 days, beagle No. 2): 3.2 ng·h/mL
AUC(0-t) ([2]; male, po, 0.09 g/kg, TRQC 0.09 g/kg for 7 days, beagle No. 2, read-out: AUC0–24 h): 3.19 ng·h/mL
AUC(0-inf) ([2]; male, po, 0.09 g/kg, TRQC 0.09 g/kg for 7 days, beagle No. 3): 5.62 ng·h/mL
AUC(0-t) ([2]; male, po, 0.09 g/kg, TRQC 0.09 g/kg for 7 days, beagle No. 3, read-out: AUC0–24 h): 5.21 ng·h/mL
Freeze-thaw stability (3 cycles) Mean ± S.D. concentration [3, 8]: 95.65 ± 3.72 ng/mL
Long-term stability (30 days at – 80 °C) Mean ± S.D. concentration [3, 8]: 87.31 ± 4.62 ng/mL
Short-term stability (6 h at room temperature) Mean ± S.D concentration [3, 8]: 88.28 ± 2.72 ng/mL
Freeze-thaw stability (3 cycles) Mean ± S.D. concentration [3, 9]: 2.07 ± 0.17 ng/mL
Long-term stability (30 days at – 80 °C) Mean ± S.D. concentration [3, 9]: 1.73 ± 0.05 ng/mL
Short-term stability (6 h at room temperature) Mean ± S.D concentration [3, 9]: 1.98 ± 0.16 ng/mL
Freeze-thaw stability (3 cycles) Mean ± S.D. concentration [3, 10]: 10.03 ± 0.84 ng/mL
Long-term stability (30 days at – 80 °C) Mean ± S.D. concentration [3, 10]: 8.95 ± 0.42 ng/mL
Short-term stability (6 h at room temperature) Mean ± S.D concentration [3, 10]: 8.97 ± 0.70 ng/mL
